From US5849753A, “Pyridyl imidazole derivatives and processes for the preparation thereof” (Korea Research Institute of Chemical Technology, priority 1994, dated 1998)
Each block holds one molecule with its values, some of them ahead of it.

Key:
[1] = Metabolite analysis (enzyme digestion test); format: in vitro ADME, male rats; conditions: rat liver microsome and NADPH, 1 hour, 37° C., HPLC
Method: Enzyme digestion test was executed in order to detect the metabolite of the test compound in vivo.
A liver microsome and NADPH system of male rats were added to each of the present compound(Example 8) and the control compound(Merck), and the mixture was incubated for 1 hour at 37° C. The resultant was extracted with methanol or dichloromethane, and, thereafter, the organic layer was evaporated to obtain a residue. The residue was analyzed using high pressure liquid chromatography.

unanesthetized dogs = assay: Blood pressure lowering effect in unanesthetized dogs (furosemide treated); format: in vivo, dog; set-up: Maximum blood pressure lowering effect in a dog: unit not given here; conditions: oral; for Blood pressure variation with time: dogs, 1.0 mg
Method: A number of dogs were fed freely in a feeding room and those weighing 7 to 12 kg in good health were selected regardless of their gender.
(§1) The test dogs were anesthetized with 30 mg/kg of pentobarbital sodium by intravenous injection and the left femoral artery and femoral vein were separated carefully. Silicone catheter, specially prepared and filled with saline treated with heparin(1,000 IU/ml), was cannulated into the blood vessels. After the surgery, the dogs were constrained to measure their blood pressure continuously with Gould 2000 physiograph adapted to a Grass P23 XL pressure transducer; and their heart rates were monitored with ECG/Biotacho amplifier. The dogs were tested at least 2 days after the surgery.
(§2) 10 mg/kg of furosemide was injected intramuscularly 18 hours(in case of intravenous injection, 2 hours) before the beginning of the test (administration of the test compound) to improve the activity of renin in blood plasma. After the injection of furosemide, neither food nor water was provided. The test compound was suspended in Tween 80 and administered in an amount of 20 mg/kg orally. The blood pressure and heart rate were measured up to 8 hours after the administration of each test compound.
The maximum blood pressure lowering effect of the present compounds and the control compounds were determined in different amounts of administration using the same method as […]

renal hypertensive rats = assay: Duration of action in renal hypertensive rats; format: in vivo, male Sprague-Dawley rats; conditions: oral
Excerpt: (§3) To induce renal hypertension, left renal artery of 4 week-old male Sprague-Dawley rats(from The Korea Research Institute of Chemical Technology) was ligated. The rats were anesthetized with ether and the surgical region on the left abdomen of the rat was shaved, disinfected, and then incised about 1 cm vertically. The renal artery near abdominal aorta was isolated carefully from surrounding tissues and veins, and then ligated completely with a suture(4/0 sterile surgical silk). The muscular strata and skin of the surgical area were sutured with a suture(4/0 sterile surgical silk). The surgical region was disinfected to prevent infection and thereafter, 200 to 250 mg/Kg/day of cephazolin sodium was injected intramuscularly for 2 days. 6 to 8 days after the ligation, rats showing systolic pressure of more than 180 mmHg were selected for renal hypertension test. The blood pressure was determined by a tail-cuff method from the tail under unanesthetized condition(Gerold, M. et al., Arzneimittrel-Forsch, 18, 1285(1968)).
(§4) Each of the compounds to be tested was administered intravenously or orally into the renal hypertensive rat. The blood pressure of the rats was determined by direct method(Chiu, A. T. et al., J. Pharmacol. Exp. Ther. 250, 867(1989)) using a catheter. The rats were anesthetized with ketamine hydrochloride(125 mg/kg, i.p.) and a catheter was filled with saline and inserted into a carotid artery and carotid vein. The surgical area was sutured with a metal clip. The rats were relaxed at least 3 hours and the catheter in the carotid artery was adapted to an isotec pressure transducer to determine their blood pressure and heart rate with a physiograph(Linearcorder WR3310). After the blood pressure was stabilized, the test compound was administered intravenously or orally. For intravenous administration, the administered volume and washing volume were 1.0 ml/Kg and 0.2 ml, respectively. The blood pressure and heart rate were measured in regular intervals up to 24 hours after the administration of the test compound and compared with those measured after the administration of the control compound Losartan.
The present(Example 28) and control(Merck) compounds were tested using the hypertensive rats of test 2(i). 1 mg or 3 mg/kg of each compound was administered orally and blood pressure lowering effect with time was determined to measure the duration of action of the compounds.

renal hypertensive rat [2] = assay: Blood pressure lowering effect on oral administration to rats at several doses; format: in vivo, male Sprague-Dawley rats
Excerpt: as §3, §4
(§5) The test compound was dissolved in 0.05N KOH for intravenous administration and suspended in Tween 80 for oral administration.
(iii) Blood pressure lowering effect The present compounds, Losartan(Dup 753) and the Merck compound were administrated orally to rats in 10, 3, 1, 0.3 and 0.1 mg/kg under the same condition as in (ii) and the blood pressure lowering effect was determined.

[3] = tested on: furosemide-administered dogs; assay: Duration of action in furosemide-administered dogs; format: in vivo, dog; conditions: 0.33 mg, per os
Method: as §1
as §2, with “The test compound was suspended in Tween 80 and administered in an amount of 20 mg/kg orally.” left out
The compound of Example 8 and the Merck compound were administered orally to the furosemide-administrated dogs as in test 3(i), and blood pressure lowering effect was measured with time.

angiotensin II receptor = assay: Angiotensin II Receptor Binding Assay ([3H] angiotensin II binding inhibition); conditions: [3H] angiotensin II ligand; 60 minutes, 25° C.; test concentration not given
Method: In accordance with the procedure disclosed in Chiu, A. T. et al., Eur. J. Pharm., 157, 13(1981), a ligand marked with a radioisotope was reacted with an angiotensin II receptor and the reactant was filtered with a glass fiber to remove unreacted ligand. After washing the filter, the amount of the remaining isotope was measured to determine the binding activity of the ligand, as described below in detail.
Sprague-Dawley rats and Wistar rats of 250 to 350 g(from The Korea Research Institute of Chemical Technology) were tested and the test procedures were carried out at 4° C., unless otherwise specified. Adrenal gland was separated from the Sprague-Dawley rats(liver, in the case of Wistar rats) into cortex and medulla. The separated adrenal cortex and medulla were washed with a sucrose buffer solution (0.2M sucrose, 1 mM EDTA, 10 mM Tris, pH 7.2) and homogenized in the same buffer solution by using a Teflon pestle and a Brinkmann homogenizer. The homogenates were centrifuged at 3,000 Xg for 10 minutes to remove precipitates and further centrifuged at 12,000 Xg for 13 minutes. The final supernatants were centrifuged at 102,000 Xg for 1 hour to obtain precipitates, which were washed with a Tris buffer solution(50 mM Tris, 5 mM MgCl2, pH 7.2) and re-centrifuged at 102,000 Xg for 1 hour. The resulting precipitates were immediately processed at the following step or stored at -70° C.
The precipitates were suspended in a Tris buffer solution. The amount of protein was determined by using a Bio-Rad DC protein analyzing kit and the protein concentration was adjusted to the amounts of: 0.2 to 0.3 mg/ml(Sprague-Dawley rat: adrenal cortex), 1.5 to 2.0 mg/ml(Sprague-Dawleyrat: adrenal medulla), and 1.5 to 2.0 mg/ml(Wistar rat: liver). To the suspension, bovine serum albumin(BSA) was added to a concentration of 0.25 wt % and the resultant was immediately processed at the following step or stored at -70° C.
(ii) Measurement of angiotensin II receptor binding capacity 50 μl(based on ligand) of [^3 H] angiotensin II(NEN, NET-446) and 10 μl of each of the test compounds with various concentrations were added to the buffer solution(50 mM Irris(pH 7.2), 5 mM MgCl2, 0.25% BSA) to adjust the final volume to be 0.5 ml. 100 μl of the receptor suspension was added thereto and the resulting solution was reacted for 60 minutes while stirring in a water bath at 25° C. 3 ml of cold buffer solution for analysis was added to cease the reaction. The isotope which was bound to the receptor was isolated from the resultant by using Brandel Cell Harvester System with Whatman glass fiber GF/C. After washing the filter, the radioactivity of the filter was determined by using a liquid scintillation counter. Binding inhibition(%) of the test compound was calculated as follows:
Binding Inhibition(%)=[{(T--B)-(S--B)}/(T--B)]×100
wherein T is cpm of the reaction product untreated with the test compound, S is cpm of the reaction product treated with the test compound, and B is cpm of blank test.

renal hypertensive rat [4] = assay: Blood pressure lowering effect in renal hypertension (renal hypertensive rats, intravenous or oral); format: in vivo, male Sprague-Dawley rats; conditions: 1 mg, read-out: Maxium Blood Pressure Lowering Effect(%)
Excerpt: as §3, §4, §5

metabolite from the enzymatic digestion [1]: has a metabolite
SMILES: CCc1nc2c(C)cc(C)nc2n1Cc1ccc(-c2ccccc2-c2nnn[nH]2)cc1 [Merck compound, reference compound]
Maximum blood pressure lowering effect in a dog (unanesthetized dogs; 0.1 mg/kg): 20 | Maximum blood pressure lowering effect in a dog (unanesthetized dogs; 0.3 mg/kg): 24 | blood pressure lowering effect with time (renal hypertensive rats; 3 mg/kg, 0 min): 0% | blood pressure lowering effect with time (renal hypertensive rats; 3 mg/kg, 10 min): -15% | blood pressure lowering effect with time (renal hypertensive rats; 3 mg/kg, 20 min): -27% | blood pressure lowering effect with time (renal hypertensive rats; 3 mg/kg, 30 min): -28% | blood pressure lowering effect with time (renal hypertensive rats; 3 mg/kg, 60 min): -26% | blood pressure lowering effect with time (renal hypertensive rats; 3 mg/kg, 90 min): -28% | blood pressure lowering effect with time (renal hypertensive rats; 3 mg/kg, 120 min): -25% | blood pressure lowering effect with time (renal hypertensive rats; 3 mg/kg, 240 min): -40% | blood pressure lowering effect with time (renal hypertensive rats; 3 mg/kg, 360 min): -36% | blood pressure lowering effect with time (renal hypertensive rats; 3 mg/kg, 1320 min): -35% | blood pressure lowering effect with time (renal hypertensive rats; 3 mg/kg, 1440 min): -40% | blood pressure lowered (renal hypertensive rats; 3 mg/kg, time in minutes not given): -40% | blood pressure lowering effect (renal hypertensive rat [2]; 3 mg/kg): 40% | blood pressure lowering effect with time ([3]; 0 min): 0.0% | blood pressure lowering effect with time ([3]; 10 min): -5.0% | blood pressure lowering effect with time ([3]; 20 min): -12.2% | blood pressure lowering effect with time ([3]; 30 min): -14.4% | blood pressure lowering effect with time ([3]; 60 min): -20.1% | blood pressure lowering effect with time ([3]; 90 min): -24.4% | blood pressure lowering effect with time ([3]; 120 min): -19.1% | blood pressure lowering effect with time ([3]; 150 min): -24.2% | blood pressure lowering effect with time ([3]; 180 min): -18.9% | blood pressure lowering effect with time ([3]; 210 min): -17.0% | blood pressure lowering effect with time ([3]; 240 min): -17.0% | blood pressure lowering effect with time ([3]; 270 min): -13.4% | blood pressure lowering effect with time ([3]; 300 min): -14.9% | blood pressure lowering effect with time ([3]; 330 min): -15.6% | blood pressure lowering effect with time ([3]; 360 min): -15.6% | blood pressure lowering effect with time ([3]; 390 min): -11.4% | blood pressure lowering effect with time ([3]; 420 min): -10.7% | blood pressure lowering effect with time ([3]; 450 min): -11.4% | blood pressure lowering effect with time ([3]; 480 min): -13.8%

Binding Inhibition(%) (angiotensin II receptor): 50.5%
SMILES: CCCCc1nc2c(C)c(-c3ccccc3)c(C(OC)OC)nc2n1Cc1ccc(-c2ccccc2-c2nnn[nH]2)cc1 [Example 28, 2-butyl-5-dimethoxymethyl-6-phenyl-7-methyl-3-[2'-(1H-tetrazol-5-yl)-biphenyl-4-ylmethyl]-3H-imidazo[4,5-b]pyridine]
Maximum blood pressure lowering effect in a dog (unanesthetized dogs; 0.1 mg/kg): 9 | Maximum blood pressure lowering effect in a dog (unanesthetized dogs; 0.3 mg/kg): 18 | Maximum blood pressure lowering effect in a dog (unanesthetized dogs; 1 mg/kg): 33 | Blood pressure variation with time (unanesthetized dogs; 0.5 hr): -3.3% | Blood pressure variation with time (unanesthetized dogs; 1 hr): -18.9% | Blood pressure variation with time (unanesthetized dogs; 2 hr): -27.7% | Blood pressure variation with time (unanesthetized dogs; 4 hr): -33.3% | Blood pressure variation with time (unanesthetized dogs; 6 hr): -29.5% | Blood pressure variation with time (unanesthetized dogs; 8 hr): -27.1% | duration of action compared with the Merck compound (renal hypertensive rats; 1 mg/kg versus Merck compound 3 mg/kg): far longer duration of action | blood pressure lowering effect with time (renal hypertensive rats; 1 mg/kg, 0 min): 0% | blood pressure lowering effect with time (renal hypertensive rats; 1 mg/kg, 10 min): -16% | blood pressure lowering effect with time (renal hypertensive rats; 1 mg/kg, 20 min): -17% | blood pressure lowering effect with time (renal hypertensive rats; 1 mg/kg, 30 min): -18% | blood pressure lowering effect with time (renal hypertensive rats; 1 mg/kg, 60 min): -21% | blood pressure lowering effect with time (renal hypertensive rats; 1 mg/kg, 90 min): -34% | blood pressure lowering effect with time (renal hypertensive rats; 1 mg/kg, 120 min): -33% | blood pressure lowering effect with time (renal hypertensive rats; 1 mg/kg, 240 min): -46% | blood pressure lowering effect with time (renal hypertensive rats; 1 mg/kg, 360 min): -47% | blood pressure lowering effect with time (renal hypertensive rats; 1 mg/kg, 1320 min): -25% | blood pressure lowering effect with time (renal hypertensive rats; 1 mg/kg, 1440 min): -28% | blood pressure lowering effect (renal hypertensive rat [2]; 0.3 mg/kg): 13% | blood pressure lowering effect (renal hypertensive rat [2]; 1 mg/kg): 47% | blood pressure lowering effect compared with the Merck compound (renal hypertensive rat [2]; Table 2): far superior effect | change in vivo at 1 mg (renal hypertensive rat [4]): -47%
